This is an account of results in patent US4760147A, “Optically active, substituted 1,4-dihydropyridines and their use as medicaments” (Cassella Aktiengesellschaft, priority 1984, dated 1988).

Each structure is given as a SMILES string.

For the test, the system named is spiral strips of the arteria pulmonalis of guineapigs. Briefly: calcium-antagonistic action: relaxing effect on potassium-depolarised, CaCl2-contracted spiral strips of the arteria pulmonalis (modified method of Godfraind and Kaba and of Schumann et al). The format is cell-based. The settings on record: depolarised with 40 mmol potassium; contraction triggered by 0.5 mmol CaCl2; mean value of 4 to 6 vascular strips; read-out: IC50 (concentration which inhibits the contraction by 50%). The protocol:
In these experiments, spiral strips of the arteria pulmonalis of guineapigs are depolarised with 40 mmol of potassium, after equilibration in calcium-freeTyrode's solution. The addition of 0.5 mmol of CaCl2 then triggers off contraction. The relaxing effect of the test substance is determined by cumulative addition in 1/2 log 10 graduated concentrations. The concentration of the test substance which inhibits the contraction by 50% (=IC50, mole/l) is determined from the concentration/effect curve (abscissa: -log mole/l of test substance, ordinate: % inhibition of the maximum contraction, mean value of 4 to 6 vascular strips).

Take `COCCOC(=O)C1=C(C)NC(C)=C(c2nnco2)C1c1cccc(Cl)c1Cl` (single isomer, unassigned) [Example 4, Methoxyethyl (-)-1,4-dihydro-2,6-dimethyl-3-(1,3,4-oxadiazol-2-yl)-4-(2,3-dichlorophenyl)-pyridine-5-carboxylate]: the IC50 turned out to be 0.3 nM.

In the case of `CC1=C(C(=O)OC(C)C)C(c2cccc(Cl)c2Cl)C(c2nnco2)=C(C)N1` (single isomer, unassigned) [Example 1e, Isopropyl (-)-1,4-dihydro-2,6-dimethyl-3-(1,3,4-oxadiazol-2-yl)-4-(2,3-dichlorophenyl)-pyridine-5-carboxylate], the IC50 was determined as 0.04 nM.

Take `CCOC(=O)C1=C(C)NC(C)=C(c2nnco2)C1c1cccc(Cl)c1Cl` (single isomer, unassigned) [Example 3, Ethyl (-)-1,4-dihydro-2,6-dimethyl-3-(1,3,4-oxadiazol-2-yl)-4-(2,3-dichlorophenyl)-pyridine-5-carboxylate]: the IC50 worked out at 0.07 nM.

For `COC(=O)C1=C(C)NC(C)=C(c2nnco2)C1c1cccc(Cl)c1Cl` (single isomer, unassigned) [Example 2, Methyl (-)-1,4-dihydro-2,6-dimethyl-3-(1,3,4-oxadiazol-2-yl)-4-(2,3-dichlorophenyl)-pyridine-5-carboxylate], the IC50 turned out to be 0.2 nM.

Regarding `CCOC(=O)[C@@H](C)OC(=O)C1=C(C)NC(C)=C(c2nnco2)C1c1cccc(Cl)c1Cl` (single isomer, unassigned) [Example 8c], the IC50 was 0.04 nM.

On to `CC1=C(C(=O)OCCOC(C)C)C(c2cccc(Cl)c2Cl)C(c2nnco2)=C(C)N1` (single isomer, unassigned) [Example 16, 2-isopropoxy-ethyl (-)-1,4-dihydro-2,6-dimethyl-3-(1,3,4-oxadiazol-2-yl)-4-(2,3-dichlorophenyl)-pyridine-5-carboxylate], for which the IC50 was found to be 0.1 nM.
